Patent US6602987B1, “Azobenzene derivatives as labeling agents and intermediates thereof” (Yeda Research and Development Co., Ltd., priority 1998, dated 2003)

Legend:
[1] = UV-Vis spectroscopic characteristics of free HABA and HABA-derivatives in buffer; format: physicochemical
Experimental: (§1) The degree of modification is calculated, after purification from side-products, on the basis of UV absorption at 356 nm in PBS, at 415 nm in basic environment, or at 504 nm after addition of excess of avidin in PBS.
(§2) Interaction of the HABAylated proteins with avidin or with anti-HABA antibodies is verified by following the characteristic shift of the absorption of the HABA chromophore. Table 4 depicts the spectroscopic characteristics in the spectra range of the HABA-derivatives as free molecules (not bound to proteins) upon interaction with avidin or specific affinity purified antibodies.

avidin = target: T1, avidin (Gallus gallus, UniProt P02701); experiment: Spectral shift of the HABA chromophore upon interaction with avidin; format: binding
T1 construct: purchased STC Laboratories (Winnipeg, Canada)
T1 sequence (P02701 25-152): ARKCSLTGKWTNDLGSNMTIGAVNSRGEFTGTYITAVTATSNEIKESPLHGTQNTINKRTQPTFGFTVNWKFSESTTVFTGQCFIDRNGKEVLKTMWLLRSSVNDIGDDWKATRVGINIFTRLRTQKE
Experimental: as §1, §2

[2] = tested on: affinity purified anti-HABA antibodies; experiment: Spectral shift of the HABA chromophore upon interaction with affinity purified anti-HABA antibodies; format: binding, rabbit
[3] = +affinity purified anti-HABA in PBS, (1:1)

| ε[cm^−1M^−1] (avidin; +Avidin in PBS, (20:1)) | λmax (nm) (avidin; +Avidin in PBS, (20:1)) | ε500 nm of bound HABA (avidin; at 500 nm, HABA bound to nonlabeled avidin or anti-HABA antibodies) | ε[cm^−1M^−1] [2, 3] | λmax (nm) [2, 3] [nm] | Compound | ε[cm^−1M^−1] at λmax ([1]; 0.1 M AcOH) | λmax (nm) ([1]; 0.1 M AcOH) | ε[cm^−1M^−1] at λmax ([1]; PBS) | λmax (nm) ([1]; PBS) | ε[cm^−1M^−1] at λmax ([1]; 0.1 M NaOH) | λmax (nm) ([1]; 0.1 M NaOH) | ε280 nm ([1]; at 280 nm) | ε[cm^−1M^−1] at λmax (avidin; PBS/AVIDIN) | λmax (nm) (avidin; PBS/AVIDIN) | ε[cm^−1M^−1] at λmax ([2]; PBS/anti-HABA) | λmax (nm) ([2]; PBS/anti-HABA) |
| --- | --- | --- | --- | --- | --- | --- | --- | --- | --- | --- | --- | --- | --- | --- | --- | --- |
| – | – | – | – | – | O=C(CCc1cc(N=Nc2ccccc2C(=O)O)ccc1O)NCCCCCCNC(=O)ON1C(=O)CCC1=O [Compound 17, 3′-(6-(succinimidyloxycarbonylamino)hexylaminocarbonylethyl)4′-hydroxy-azo-benzene-2-carboxylic acid] | 12,200 cm^−1M^−1 | 356 | – | – | – | – | – | – | – | – | – |
| 35,500 cm^−1M^−1 | 500 | about 30,000 | 50,000 cm^−1M^−1 | 482 | O=C(O)c1ccccc1/N=N/c1ccc(O)cc1 [Compound 0, 4′-hydroxyazobenzene-2-carboxylic acid, reference compound] | – | – | 20,500 cm^−1M^−1 | 350 | – | – | – | – | – | – | – |
| – | – | – | – | – | NCCCCCCNC(=O)CCc1cc(N=Nc2ccccc2C(=O)O)ccc1O [Compound 16, 3′-(6-aminohexylaminocarbonylethyl)-4′-hydroxy-azobenzene-2-carboxylic acid] | 12,500 cm^−1M^−1 | 356 | 12,900 cm^−1M^−1 | 356 | 15,000 cm^−1M^−1 | 420 | 3,300 | 30,000 cm^−1M^−1 | 504 | 50,000 cm^−1M^−1 | 482 |
